Reference: patent publication US20050038113A1, “Valproic acid and derivatives for the combinatorial therapeutic treatment of human cancers and for the treatment of tumor metastasis and minimal residual disease” (G2M Cancer Drugs AG, priority 2001, published 2005)

Key:
[1] = system: histone deacetylases; settings: cited from earlier work
[2] = system: mouse embryos; settings: when properly dosed; cited from earlier work
[3] = system: HCT-15 colon cancer cells; assay: SRB-assay, reduction in total cellular biomass; type: cell-based, human
Description: (§1) The reduction in cellular biomass was measured by SRB-assay. For this assay cells were seeded in 96 well culture dishes at densities between 3000 and 8000 cells per well. […] Cultures were fixed with cold TCA producing a final TCA concentration of 10%. After 1 hour of incubation at 4° C. the cells were washed five times with water and air dried. Fixed cells were stained for 30 minutes with 0,4% (wt/vol) Sulforhodamine B (SRB) dissolved in 1% acetic acid and washed four times with 1% acetic acid to remove unbound dye. After air drying bound dye was solubilized with 10 mM unbuffered Tris base (pH 10,5) for 5 minutes. Optical densities were read on a Titertek Multiskan Plus spectrophotometric plate reader at 550 nm. Six test wells for each dose-response were set in parallel with 12 growth control wells per cell line. A measure of the cell population density at time 0 (To; the time at which the drug was added) was also made from 12 extra reference wells of cells fixed with TCA just prior to drug addition to the test plates. Background OD of complete medium with 5% FBS fixed and stained as described above was also determined in 12 separate wells. From the unprocessed OD data from each microtiter plate the background OD measurements (i.e. OD of complete medium plus stain and OD of cells at T0) were subtracted thus giving the reduction of cellular biomass of the cells.
This was in particular obvious when lower concentrations of 5-FU were used. E.g. […] Thus, this combinatorial activity of these two drugs must be explained via a synergistic activity of this treatment.

[4] = system: human endothelial cells; assay: endothelial cell activation (anti-angiogenesis); type: cell-based; settings: VPA and inhibitors of VEGF-R tyrosine kinase activity at the same time, vs individual drugs alone
Description: In addition, the effect of inhibitors of vascular endothelial growth factor receptor (VEGF-R) tyrosine kinase activity was tested on these cells since VEGF-R inhibitors are known to act anti-angiogenic in model systems of tumor-associated endothelial cell activation (e.g. vascular tube formation and/or endothelial cell activation).

[5] = system: SKOV3 ovarian carcinoma cells; assay: MTT cell viability assay; type: cell-based, Human; settings: 40 h
Description: Human SKBR3 breast carcinoma cells, A431 squamous cell carcinoma cells and SKOV3 ovarian carcinoma cells were maintained in Dulbecco's modified Eagle's medium (DMEM, BioWhittaker, Verviers, Belgium) supplemented with 10% heat-inactivated fetal bovine serum (FBS), 2 mM L-glutamine, 100 units/ml penicillin, and 100 μg/ml streptomycin.
Tumor cells were seeded in 96 well plates at a density of 1×10^4 cells/well in normal growth medium. SKBR3, A431 and SKOV3 cells were treated for 40 h with valproic acid at a final concentration of 3 mM, or 10 ng/ml of the recombinant anti-ErbB2 single chain antibody-toxin scFv(FRP5)-ETA (Wels et al., Cancer Res. 52: 6310-6317, 1992), or 10 ng/ml of the recombinant anti-EGF receptor single chain antibody-toxin scFv(14E1)-ETA (Schmidt et al., Brit. J. Cancer 75: 1575-1584, 1997), or a combination of valproic acid with either scFv(FRP5)-ETA or scFv(14E1)-ETA at the same concentrations. […] After solubilization of the formazan product, the absorption at 590 nm was determined in a microplate reader (Dynatech, Denkendorf, Germany) and the relative amount of viable cells in comparison to cells cultured without the addition of valproic acid or antibody-toxins was calculated.

[6] = system: MT450 breast cancer cells; assay: MT450 rat breast cancer model, subcutaneous tumor growth and lung metastasis; type: in vivo
Description: MT450 cells were grown in DMEM/W10% FCS medium and tested for absence of mycoplasms just prior to injection. Cells were washed twice in PBS and suspended to a density of 5×10^6 cells per ml of PBS. 5×10^5 cells in 0.1 ml of PBS were injected into each rat. […] Rats were left to grow primary tumors for 21 days. […] The solution was sterile filtered. The compound was applied by i.p. injection. […] Two doses per day were applied. Control animals received equal amounts of a sterile isotonic sodium chloride solution.
The experiment was terminated when tumor size in one of the rats of the control group had reached the legal limit of 50 mm. Necropsy at that time was performed on all rats of the experiment to assess lung metastasis. […] Metastasis was also found in 7 out of 8 VPA-treated rats. However, size and number of metastases were much smaller compared to NaCl-treated rats. A dose finding experiment had shown that the chosen dosage protocol lead to high initial serum levels (e.g. 3.6 mM at 1 hour after i.p. injection) which rapidly dropped (e.g. 0.25 mM at 4 hours after i.p. injection) below those levels which are maintained during therapy of epilepsy in human.

[7] = system: COLO320DM colon cancer cells; assay: SRB-assay, reduction in total cellular biomass; type: cell-based, human; settings: 0.75 mM VPA in combination with Camptothecin, 48 hours
Description: as §1

[8] = system: A-549 non-small cell lung cancer cells; assay: SRB-assay, reduction in total cellular biomass; type: cell-based, human; settings: 0.75 mM VPA in combination with Gemcitabine, 48 hours, compared to either alone
Description: as §1

[9] = system: PML-RAR expressing murine hematopoietic progenitors (lin-); assay: myeloid differentiation (Mac-1, FACS) of transduced hematopoietic progenitors; type: cell-based; settings: VPA 1 mM with cytokines (IL3, IL6, SCF, G-CSF, GM-CSF), 8-10 days
Description: Murine hematopoietic progenitors (lin-) were transduced with a retroviral vector encoding PML-RAR, and GFP as a marker. […] Myeloid differentiation was scored by analyzing the presence of the differentiation marker Mac-1.
Lin- cells were grown for 48 hours in the presence of IL-3 (20 ng/ml), IL-6 (20 ng/ml), SCF (100 ng/ml), and then attached to non-tissue culture treated plates coated with Retronectin (Takara-Shuzo). Cells were then transduced by incubation with the supernatant from Phoenix ecotropic packaging cells (supplemented with fresh serum, and IL-3, IL-6, and SCF as above), transiently transfected with the control retroviral vector PINCO, or PINCO-PML-RAR. After 60 hours, GFP+cells were sorted by FACS, and seeded in methylcellulose plates supplemented as above, plus G-CSF (60 ng/ml) and GM-CSF (20 ng/ml). […] After 8-10 days, cells were analyzed for the presence of the myeloid differentiation marker Mac-1 by FACS.
Differentiation was assessed after 8-10 days by analysis of the myeloid differentiation marker Mac-1.

## CCCC(CCC)C(=O)O [VPA, 2-propylpentanoic acid]
[1]
  histone deacetylase inhibition: acts as an inhibitor of histone deacetylases
[2]
  teratogenicity: teratogenic in the majority of mouse embryos
[3]; 0.75 mM VPA in combination with 5-FU, 48 hours, compared to VPA or 5-FU alone
  reduction in cellular biomass: synergistic reduction in cellular biomass
[3]; 5-FU lower than 0.5 μM in combination with 0.75 mM VPA, compared to 0.75 mM VPA alone
  decrease in cellular biomass: stronger decrease in cellular biomass
[4]
  activation of endothelial cells: at least additive effect
[5]; 3 mM valproic acid + 10 ng/ml scFv(FRP5)-ETA
  cell viability, combination treatment: pronounced additive therapeutic effect
[5]; single reagent, valproic acid 3 mM, scFv(FRP5)-ETA 10 ng/ml
  cell viability: inhibit the viability
[6]; 1.25 mmol VPA per kg BW i.p., two doses per day
  size and number of metastases compared to NaCl-treated rats: much smaller
[6]; 1.25 mmol VPA per kg BW i.p., two doses per day, vs sodium chloride solution
  growth of the primary tumors (tumor volume): delays tumor expansion
[6]; VPA-treated rats, 1.25 mmol/kg i.p. twice daily, all rats of the control group showed metastasis
  rats with lung metastasis at necropsy: 7 out of 8
[7]
  reduction in cellular biomass: clear reduction in cellular biomass
[8]
  reduction in cellular biomass: clear additive reduction in cellular biomass
[9]
  differentiation block imposed by PML-RAR (Mac-1): almost completely reverted the differentiation block
